# Article PMC9937538 (Journal of Medicinal Chemistry, 2022)
# Values joined by “and” are separate entries in the source; they are usually repeats but may differ in a detail not shown here. Identical values can stand only once.
# Legend:
# [1] = biological target: T1, purified recombinant human DPP IV (Homo sapiens, UniProt P27487); assay: In vitro DPP IV activity assay (fluorogenic Gly-Pro-AMC substrate); format: biochemical; details: mean from three different assays
# T1 construct: purchased Cayman Chemicals (Michigan)
# Method: The DPP IV inhibition activities of the entire sets of compounds were carried out on purified recombinant human DPP IV using conditions previously optimized.[35]
# Four independent in vitro experiments were carried out, and each of those was performed in triplicate in a white half-volume 96-well solid plate. […] Afterward, the samples were mixed and 50 μL was transferred to each plate well. Each reaction was started by adding 50 μL of the substrate solution (200 μM H-Gly-Pro-7-amido-4-methylcoumarin (AMC)) to each well and incubated at 37 °C for 30 min. […] The DPP IV enzyme and the substrate solution were provided by Cayman Chemicals (Michigan).
# human cloned α1a-AR = biological target: T2, human cloned α1a-AR (Homo sapiens, UniProt P35348); assay: α1a-AR binding assay ([3H]prazosin displacement); details: human cloned α1a-AR expressed in HEK293 cells
# T2 construct: expressed in transfected cells
# T2 sequence (P35348 1-466): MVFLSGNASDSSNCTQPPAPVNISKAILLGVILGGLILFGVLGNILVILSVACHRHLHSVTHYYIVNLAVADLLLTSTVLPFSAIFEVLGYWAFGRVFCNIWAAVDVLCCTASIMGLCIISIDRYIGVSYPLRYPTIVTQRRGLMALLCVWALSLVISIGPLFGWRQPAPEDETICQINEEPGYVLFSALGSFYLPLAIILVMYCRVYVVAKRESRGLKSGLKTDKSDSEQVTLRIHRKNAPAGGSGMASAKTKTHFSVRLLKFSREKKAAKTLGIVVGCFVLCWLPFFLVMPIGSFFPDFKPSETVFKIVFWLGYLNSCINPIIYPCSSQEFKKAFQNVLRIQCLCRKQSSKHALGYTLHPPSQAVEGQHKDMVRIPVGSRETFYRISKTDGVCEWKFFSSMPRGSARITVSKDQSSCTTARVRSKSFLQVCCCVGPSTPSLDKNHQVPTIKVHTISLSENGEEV
# Text: Since WB-4101 is a potent α1 antagonist, this adrenoreceptor subtype was chosen to assess the loss of adrenergic affinity.
# Figure S3. […] Curves […]
# from single experiments were fitted using the standard four parameter logistic equation and represent the mean ± S.E.M. of 4 observations, 2 experi-ments. X-axis: Log concentrations of competitive test compounds. Y-axis: normalized [3H]prazosin Bound/Total bound.
# In the table are reported the affinity constants, expressed as pKi (-log Ki), of compounds 11, 12 and WB-4101 for human cloned α1a-AR expressed in HEK293 cells. The values represent the arithmetic mean ± S.E.M. of 4 observations, 2 experiments.
# ND, not determinable; NA, not available.
# Note: data generated from binding assays were analyzed using Prism 5.02 (GraphPad Software Inc., San Diego, CA) and were fitted to a parametric function to derive best estimates of the IC50 and slope factor (nH); IC50 values were then converted to binding constant Ki according to Cheng-Prus- […]
# The details on the α1a-AR binding assay have been described before2.
# (1 picture or pasted object on this page, not shown here)
# Caco-2 cells [2] = assay: MTT assay; format: cell-based, human; details: 10^–8 to 10^–5 M, 48 h
# Method: (§1) The cytotoxicity of the active compound 12 was determined. Cell viability was assessed by the quantitative colorimetric method of the MTT reduction on Caco-2 and HepG2 cells.
# (§2) A total of 3 × 10^4 Caco-2 and HepG2 cells/well were seeded in 96-well plates and treated with 11 and 12 from 10^–8 to 10^–5 M or vehicle (H2O) in complete growth media for 48 h at 37 °C under a 5% CO2 atmosphere. Subsequently, the treatment solvent was aspirated and 100 μL/well of 3-(4,5-dimethylthiazol-2-yl)-2,5-diphenyltetrazolium bromide (MTT) filtered solution was added. After 2 h of incubation at 37 °C under a 5% CO2 atmosphere, 0.5 mg/mL solution was aspirated and 100 μL/well of the lysis buffer (8 mM HCl + 0.5% NP-40 in DMSO) was added. After 10 min of slow shaking, the absorbance at 575 nm was read on a Synergy H1 fluorescence plate reader (Biotek, Bad Friedrichshall, Germany).
# HepG2 cells = assay: MTT assay; format: cell-based, human; details: 10^–8 to 10^–5 M, 48 h
# Method: as §1, §2
# [3] = Solubility in phosphate-buffered saline (LC-MS/MS); format: physicochemical; details: pH 7.4, read-out: soluble concentration
# Method: The solubility of compound 12 was determined in phosphate-buffered saline at a pH of 7.4 through a suitable liquid chromatography and tandem mass spectrometry (LC-MS/MS) method, as described in the Experimental Section.
# [4] = Hepatic microsome stability; format: in vitro ADME; details: after 120 min of incubation
# Method: To predict the metabolic fate as well as the susceptibility of compound 12 to phase I metabolism following the in vivo administration, it was incubated with human (Sekisui XenoTech, LLC), CD-1 mouse (BioIVT), and Sprague-Dawley (SD) rat liver microsomes (Corning), as described in the Experimental Section.
# [5] = biological target: T3, DPP IV activity expressed by nondifferentiated Caco-2 cells (Homo sapiens, UniProt P27487); format: cell-based
# T3 construct: Caco-2 cells that express high levels of DPP IV on their cellular membranes; endogenous in cells; host or cells: Caco-2 cells (INSERM, Paris)
# Method: The data are represented as the means ± standard deviation (SD) of three independent experiments, performed in triplicate. Statistical analysis was performed by one-way analysis of variance (ANOVA), followed by Tukey’s post hoc test. ns: not significant; (**), p < 0.01, (****) p < 0.0001; C: control cells.
# A total of 3 × 10^4 Caco-2 cells/well were seeded in black 96-well plates with clear bottoms.
# hCA IX = hCA IX (Homo sapiens, UniProt Q16790); assay: CA inhibition, stopped-flow CO2 hydration assay; details: read-out: Ki CA IX; stopped-flow technique, mean from three assays
# Method: An applied photophysics stopped-flow instrument was used for assaying the CA-catalyzed CO2 hydration activity.[37]
# The uncatalyzed rates were determined in the same manner and subtracted from the total observed rates. Stock solutions of the inhibitor (0.1 mM) were prepared in distilled–deionized water, and dilutions up to 0.01 nM were done thereafter with the assay buffer. Inhibitor and enzyme solutions were preincubated together for 15 min at room temperature prior to the assay to allow for the formation of the E–I complex. The inhibition constants were obtained by nonlinear least-squares methods using PRISM 3 and the Cheng–Prusoff equation, as reported earlier, and represent the mean from at least three different determinations. All CA isoforms were recombinant proteins obtained in-house, as reported earlier.[44]−[46]
# Caco-2 cells [6] = assay: Uptake by Caco-2 cells (intrinsic fluorescence, normalized with Janus Green); format: in vitro ADME, human; details: 1.0 μM
# Method: The ability of compound 12 to be uptaken by Caco-2 cells was assessed, exploiting its natural behavior to emit fluorescence at 313 nm after excitation at 250 nm using a fluorescent plate reader. […] Fluorescence signals emitted at 313 nm by the compound localized at the intracellular level as a function of time have been normalized for the total amount of cells stained using Janus Green (OD 595 nm); therefore, the relative fluorescence unit (RFU) 313/595 nm after 15, 30, and 60 min of incubation was calculated. The RFU 313/595 nm of the blank samples, which represents the cellular background, was subtracted from each normalized fluorescence signal. […] In particular, compound 12 is absorbed by Caco-2 cells up to 2874 ± 383.1, 4562 ± 993.2, and 6250 ± 1163RFU after 15, 30, and 60 min, respectively (Figure 7).
# T3 sequence (P27487 whole entry): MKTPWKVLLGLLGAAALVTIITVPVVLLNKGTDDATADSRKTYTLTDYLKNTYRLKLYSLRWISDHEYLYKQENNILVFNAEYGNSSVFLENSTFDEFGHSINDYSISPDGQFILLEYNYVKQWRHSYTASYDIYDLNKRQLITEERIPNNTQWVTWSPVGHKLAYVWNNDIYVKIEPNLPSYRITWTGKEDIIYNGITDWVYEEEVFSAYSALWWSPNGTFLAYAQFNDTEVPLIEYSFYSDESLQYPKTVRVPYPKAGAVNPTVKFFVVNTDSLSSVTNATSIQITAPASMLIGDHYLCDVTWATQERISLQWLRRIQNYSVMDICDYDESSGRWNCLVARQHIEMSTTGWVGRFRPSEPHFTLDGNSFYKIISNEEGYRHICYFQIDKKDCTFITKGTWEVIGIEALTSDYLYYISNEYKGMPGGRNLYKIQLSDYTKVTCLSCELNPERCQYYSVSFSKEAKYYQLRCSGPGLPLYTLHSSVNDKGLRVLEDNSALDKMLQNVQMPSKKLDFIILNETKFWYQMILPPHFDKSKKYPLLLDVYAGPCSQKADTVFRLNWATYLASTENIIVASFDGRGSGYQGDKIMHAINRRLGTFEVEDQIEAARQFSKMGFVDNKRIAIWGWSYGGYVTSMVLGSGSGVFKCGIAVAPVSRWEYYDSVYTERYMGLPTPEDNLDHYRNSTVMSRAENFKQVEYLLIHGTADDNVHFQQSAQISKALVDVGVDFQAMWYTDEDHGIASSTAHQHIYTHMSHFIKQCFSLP
# T1 sequence (P27487 whole entry): as above
compound,measurement,setting,value
"NC(CCOc1ccc(S(N)(=O)=O)cc1)C1COc2ccccc2O1 (centres unmarked) [Compound 12, 4-(3-Amino-3-(1,4-benzodioxan)propoxy)benzenesulfonamide]",IC50,[1],49 ± 4.5 nM
same,nH α1a-AR (slope factor),human cloned α1a-AR,0.97 ± 0.27
same,pKi α1a-AR,human cloned α1a-AR; mean ± S.E.M.,6.61
same,cell viability (MTT reduction),Caco-2 cells [2],maintain their metabolic activity
same,cell viability (MTT reduction),HepG2 cells,maintain their metabolic activity
same,solubility,[3],224 µM
same,compound remaining,[4]; human liver microsomes,72.6%
same,compound remaining,[4]; mouse liver microsomes,27.5%
same,compound remaining,[4]; rat liver microsomes,16.7%
same,inhibition of cellular DPP IV activity vs untreated cells,[5],60.65 ± 4.92% and 71.86 ± 4.27%
same,Ki,hCA IX,133 nM
same,intracellular fluorescence RFU 313/595 nm (uptake),Caco-2 cells [6]; 15 min,2874 ± 383.1 RFU
same,intracellular fluorescence RFU 313/595 nm (uptake),Caco-2 cells [6]; 30 min,4562 ± 993.2 RFU
same,intracellular fluorescence RFU 313/595 nm (uptake),Caco-2 cells [6]; 60 min,6250 ± 1163 RFU
